Experimental data: patent publication US20260364184A1, “COMPOUND BASED ON OXOISOINDOLINYL-SUBSTITUTED TETRAHYDROPYRIMIDINE-DIONE AND USE THEREOF” (GLUETACS THERAPEUTICS (SHANGHAI) CO., LTD., priority 2023, published 2026)

Assays:
Type in all cases: cell-based
[1] = system: Human Multiple myeloma cell line (MM.1S); test: Inhibition of MM.1S cell proliferation (CellTiter luminescent viability); conditions: Table IA1, IRAK4 inhibitor-based, 96 hours, read-out: Inhibitory activity (IC50, nM) on tumor cell proliferation, MM.1S
Description: (§1) The tumor cells used herein were cultured in a cell culture medium listed in table 3 at 37 °C in an incubator with 5% CO2. Prior to experimentation, all cell lines used were correctly identified by STR profiling, and tested negative for mycoplasma contamination using a mycoplasma detection kit through routine screenings.
(§2) The IC50 values of the compounds of the present disclosure (including the compounds in Table 1, Table 2, and Examples 1-468) were determined using the CellTiter-Meiluncell Luminescent Cell Viability Assay Kit from Dalian Meilun Biotech Co., Ltd. The detailed procedure is as follows: Tumor cells were seeded in 96-well cell culture plates at the densities specified in Table 4. On the following day, the test compounds of the present disclosure were subjected to serial dilution. The dilution can be performed according to one of the following two methods: • (1) The first dilution method: The test compounds of the present disclosure (including the compounds in Table 1, Table 2, and Examples 1-468) were subjected to 5-fold serial dilutions starting from a highest concentration of 2000 μM, resulting in a total of 9 concentrations from high to low (2000, 400, 80, 16, 3.2, 0.64, 0.128, 0.0256, 0.00512 μM). Subsequently, 0.5 μL of the test compound dilution was transferred into the 96-well plate containing the cells, with each well containing 100 μL of cell culture medium. […] Into the 96-well plate, the diluted test compounds and corresponding detection reagents were added, resulting in final test compound concentrations of 500 nM and 10 nM, respectively. The experimental procedure is described below using the diluted 2 μM test compound as an example.
(§3) 0.5 μL of the aforementioned diluted compound of the present disclosure (including the compounds in Table 1, Table 2, and Examples 1-468) was added to the seeded cells in 100 μL of medium, yielding a final test compound concentration of 10 nM. After the cells were treated with the compounds of the present disclosure for a specified period, the cell viability assay reagent was added to the culture medium according to the kit's instructions to determine cell viability. […] All controls were treated using the same procedure as the compounds of the present disclosure. The growth inhibition curves for the compounds of the present disclosure were plotted using Prism GraphPad software, and the IC50 values were calculated therefrom.

IRAK4 = biological target: T1, IRAK4 (Homo sapiens, UniProt Q9NWZ3); test: Western blot degradation of IRAK4; conditions: hPBMC Cell; 24 hours
T1 construct: expression of target proteins in cells; endogenous in cells
T1 sequence (Q9NWZ3 1-460): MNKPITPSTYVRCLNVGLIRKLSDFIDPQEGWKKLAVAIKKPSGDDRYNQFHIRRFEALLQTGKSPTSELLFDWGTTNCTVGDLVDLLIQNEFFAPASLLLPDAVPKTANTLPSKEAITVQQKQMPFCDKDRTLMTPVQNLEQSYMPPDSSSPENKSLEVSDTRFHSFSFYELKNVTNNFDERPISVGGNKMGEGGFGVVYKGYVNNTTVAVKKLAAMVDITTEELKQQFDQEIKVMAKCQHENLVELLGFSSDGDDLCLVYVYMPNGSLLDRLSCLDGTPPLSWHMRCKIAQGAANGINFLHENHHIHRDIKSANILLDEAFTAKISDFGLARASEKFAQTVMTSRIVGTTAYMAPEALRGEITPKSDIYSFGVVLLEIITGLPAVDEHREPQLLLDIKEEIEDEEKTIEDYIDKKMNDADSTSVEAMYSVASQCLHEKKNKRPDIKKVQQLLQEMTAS
How it was run: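 Compound-treated cells harvested; lysates denatured 5 min at 95 °C, run on SDS-PAGE, blotted to NC membrane, blocked 1 h RT, probed with antibodies. Densitometry vs DMSO → DC50; target normalised to internal control → % remaining, degradation = 1 − remaining.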

[2] = system: Human myeloid monocytic leukemia cell line (MV-4-11); test: Inhibition of MV-4-11 cell proliferation (CellTiter luminescent viability); conditions: Homo sapiens, MV4-11, Table IA3, IRAK4 inhibitor-based, 96 hours; for inhibition at 0.01 µM: MV-4-11, 10 nM, read-out: Inhibition Rate at 10 nM (%); for inhibition at 0.5 µM: MV-4-11, 500 nM, read-out: Inhibition Rate at 500 nM (%)
Description: as §1, §2, §3

[3] = system: Human Acute T Lymphoblastic Leukemia Cells (Molt-4); test: Inhibition of Molt-4 cell proliferation (CellTiter luminescent viability); conditions: Homo sapiens, MOLT-4, 96 h, Table IA2, IRAK4 inhibitor-based, 96 hours; for inhibition at 0.01 µM: Molt-4, 10 nM, read-out: Inhibition Rate at 10 nM (%); for inhibition at 0.5 µM: Molt-4, 500 nM, read-out: Inhibition Rate at 500 nM (%)
Description: as §1, §2, §3

Row | SMILES | IC50 [1] | Degradation of substrate protein IRAK4 (substrate protein remaining %) (IRAK4) | inhibition at 0.01 µM [2] | inhibition at 0.5 µM [2] | inhibition at 0.01 µM [3] | inhibition at 0.5 µM [3]
1 | O=C1CCN(N2C(=O)c3ccc(N4CCC(CN5CCC(n6cc(NC(=O)c7coc(-c8ccnc(NCC9CC9)c8)n7)c(C(F)F)n6)CC5)CC4)cc3C2=O)C(=O)N1 [GT-04953, 2-(2-((cyclopropylmethyl)amino)pyridin-4-yl)-N-(3-(difluoromethyl)-1-(1-((1-(2-(2,4-dioxotetrahydropyrimidin-1(2H)-yl)-1,3-dioxoisoindolin-5-yl)piperidin-4-yl)methyl)piperidin-4-yl)-1H-pyrazol-4-yl) oxazole-4-carboxamide] | 500 to 1000 nM | A (0%≤substrate protein remaining %≤80%) |  |  |  | 
2 | O=C1CCN(N2C(=O)c3ccc(N4C[C@H]5C[C@@H]4CN5C[C@H]4CC[C@H](n5cc(NC(=O)c6cnn7ccc(N8C[C@H]9C[C@@H]8CO9)nc67)c(C(F)F)n5)CC4)cc3C2=O)C(=O)N1 [GT-05238, 5-((1R,4R)-2-oxa-5-azabicyclo[2.2.1]heptan-5-yl)-N-(3-(difluoromethyl)-1-((1R,4R)-4-(((1R,4R)-5-(2-(2,4-dioxotetrahydropyrimidin-1(2H)-yl)-1,3-dioxoisoindolin-5-yl)-2,5-diazabicyclo[2.2.1]heptan-2-yl)methyl)cyclohexyl)-1H-pyrazol-4-yl)pyrazolo[1,5-a]pyrimidine-3-carboxamide] |  | A (0%≤substrate protein remaining %≤80%) | 20 to 36% | 60 to 80% |  | 
3 | O=C1CCN(N2C(=O)c3cccc(N4CCC(CN5CCN(c6ccc7c(c6)nc(NC(=O)c6cccc(C(F)(F)F)c6)n7[C@H]6CC[C@@H](CO)CC6)CC5)CC4)c3C2=O)C(=O)N1 [GT-05325, N-(5-(4-((1-(2-(2,4-dioxotetrahydropyrimidin-1(2H)-yl)-1,3-dioxoisoindolin-4-yl)piperidin-4-yl)methyl)piperazin-1-yl)-1-((1s,4s)-4-(hydroxymethyl)cyclohexyl)-1H-benzo[d]imidazol-2-yl)-3-(trifluoromethyl)benzamide] |  | A (0%≤substrate protein remaining %≤80%) | -15 to -10% | 60 to 80% |  | 
4 | COc1cc2nn(C3CCN(CC4CCN(c5cccc6c5C(=O)N(N5CCC(=O)NC5=O)C6=O)CC4)CC3)cc2cc1NC(=O)c1cccc(C(F)(F)F)n1 [GT-05817, N-(2-(1-((1-(2-(2,4-dioxotetrahydropyrimidin-1(2H)-yl)-1,3-dioxoisoindolin-4-yl)piperidin-4-yl)methyl)piperidin-4-yl)-6-methoxy-2H-indazol-5-yl)-6-(trifluoromethyl) picolinamide] |  | A (0%≤substrate protein remaining %≤80%) | -5 to 0% | 50 to 60% |  | 
5 | COc1cc2nn([C@H]3CC[C@H](CN4C[C@@H]5C[C@H]4CN5c4ccc5c(c4)C(=O)N(N4CCC(=O)NC4=O)C5=O)CC3)cc2cc1NC(=O)c1cccc(C(F)(F)F)n1 [GT-08648, N-(2-((1S,4r)-4-(((1S,4S)-5-(2-(2,4-dioxotetrahydropyrimidin-1(2H)-yl)-1,3-dioxoisoindolin-5-yl)-2,5-diazabicyclo[2.2.1]heptan-2-yl)methyl)cyclohexyl)-6-methoxy-2H-indazol-5-yl)-6-(trifluoromethyl) picolinamide] |  | A (0%≤substrate protein remaining %≤80%) |  |  | 15 to 20% | 15 to 20%
6 | COc1cc2nn([C@H]3CC[C@H](CN4C[C@H]5C[C@@H]4CN5c4ccc5c(c4)C(=O)N(N4CCC(=O)NC4=O)C5=O)CC3)cc2cc1NC(=O)c1cccc(C(F)(F)F)n1 [GT-08650, N-(2-((1R,4r)-4-(((1R,4R)-5-(2-(2,4-dioxotetrahydropyrimidin-1(2H)-yl)-1,3-dioxoisoindolin-5-yl)-2,5-diazabicyclo[2.2.1]heptan-2-yl)methyl)cyclohexyl)-6-methoxy-2H-indazol-5-yl)-6-(trifluoromethyl) picolinamide] |  | A (0%≤substrate protein remaining %≤80%) |  |  | 20 to 40% | 15 to 20%
7 | COc1cc2nn([C@H]3CC[C@H](CN4CCN(c5cc6c(cc5F)C(=O)N(N5CCC(=O)NC5=O)C6=O)CC4)CC3)cc2cc1NC(=O)c1cccc(C(F)(F)F)n1 [GT-08651, N-(2-((1r,4r)-4-((4-(2-(2,4-dioxotetrahydropyrimidin-1(2H)-yl)-6-fluoro-1,3-dioxoisoindolin-5-yl)piperazin-1-yl)methyl)cyclohexyl)-6-methoxy-2H-indazol-5-yl)-6-(trifluoromethyl) picolinamide] |  | A (0%≤substrate protein remaining %≤80%) |  |  | 15 to 20% | 10 to 15%
8 | COc1cc2nn([C@H]3CC[C@H](CN4CC5CCC(C4)N5c4ccc5c(c4)C(=O)N(N4CCC(=O)NC4=O)C5=O)CC3)cc2cc1NC(=O)c1cccc(C(F)(F)F)n1 [GT-08652, N-(2-((1r,4r)-4-((8-(2-(2,4-dioxotetrahydropyrimidin-1(2H)-yl)-1,3-dioxoisoindolin-5-yl)-3,8-diazabicyclo[3.2.1]octan-3-yl)methyl)cyclohexyl)-6-methoxy-2H-indazol-5-yl)-6-(trifluoromethyl) picolinamide] |  | A (0%≤substrate protein remaining %≤80%) |  |  | 15 to 20% | 15 to 20%
9 | COc1cc2nn([C@H]3CC[C@H](CN4CCN(c5cc6c(cc5F)C(=O)N(N5CCC(=O)NC5=O)C6=O)CC4)CC3)cc2cc1NC(=O)c1cccc(C(F)(F)F)c1 [GT-08664, N-(2-((1r,4r)-4-((4-(2-(2,4-dioxotetrahydropyrimidin-1(2H)-yl)-6-fluoro-1,3-dioxoisoindolin-5-yl)piperazin-1-yl)methyl)cyclohexyl)-6-methoxy-2H-indazol-5-yl)-3-(trifluoromethyl)benzamide] |  | A (0%≤substrate protein remaining %≤80%) |  |  | 20 to 40% | 15 to 20%
10 | COc1cc2nn([C@H]3CC[C@H](CN4CC5CCC4CN5c4ccc5c(c4)C(=O)N(N4CCC(=O)NC4=O)C5=O)CC3)cc2cc1NC(=O)c1cccc(C(F)(F)F)c1 (stereo partly drawn) [GT-08673, N-(2-((1r,4r)-4-((5-(2-(2,4-dioxotetrahydropyrimidin-1(2H)-yl)-1,3-dioxoisoindolin-5-yl)-2,5-diazabicyclo[2.2.2]octan-2-yl)methyl)cyclohexyl)-6-methoxy-2H-indazol-5-yl)-3-(trifluoromethyl)benzamide] |  | A (0%≤substrate protein remaining %≤80%) |  |  |  | 
